According to patent publication US11236087B2, “Highly active pyrazolo-piperidine substituted indole-2-carboxamides active against the hepatitis B virus (HBV)” (AiCuris GmbH & Co. KG, priority 2017, dated 2022):
Read-outs that look alike come from different tables or passages of the source.

Experiments:
[1] = Cell viability assay (AlamarBlue) in HepAD38 cells; conditions: human
HBV core protein = target: T1, HBV core protein (UniProt P03146); test: Biochemical capsid assembly assay (fluorescence quenching); set-up: species or system hepatitis B virus; conditions: read-out: Assembly Activity (IC50); BODIPY-FL labelled core protein, 300 μM NaCl, read 6 min after start
T1 construct: fused on or other part: BODIPY-FL maleimide label on the C-terminal Cys150
T1 sequence (P03146 whole entry, looked up, the tested form may be a part): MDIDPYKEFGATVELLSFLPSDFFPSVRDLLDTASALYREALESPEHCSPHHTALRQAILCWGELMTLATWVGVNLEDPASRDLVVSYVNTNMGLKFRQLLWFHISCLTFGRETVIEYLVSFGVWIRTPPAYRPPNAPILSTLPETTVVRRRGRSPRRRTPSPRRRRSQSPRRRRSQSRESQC
Method: Biochemical Capsid Assembly Assay
The screening for assembly effector activity was done based on a fluorescence quenching assay published by Zlotnick et al. (2007). The C-terminal truncated core protein containing 149 amino acids of the N-terminal assembly domain fused to a unique cysteine residue at position 150 and was expressed in E. coli using the pET expression system (Merck Chemicals, Darmstadt). Purification of core dimer protein was performed using a sequence of size exclusion chromatography steps. In brief, the cell pellet from 1 L BL21 (DE3) Rosetta2 culture expressing the coding sequence of core protein cloned NdeI/XhoI into expression plasmid pET21b was treated for 1 h on ice with a native lysis buffer (Qproteome Bacterial Protein Prep Kit; Qiagen, Hilden). After a centrifugation step the supernatant was precipitated during 2 h stirring on ice with 0.23 g/ml of solid ammonium sulfate. Following further centrifugation the resulting pellet was resolved in buffer A (100 mM Tris, pH 7.5; 100 mM NaCl; 2 mM DTT) and was subsequently loaded onto a buffer A equilibrated CaptoCore 700 column (GE HealthCare, Frankfurt). The column flow through containing the assembled HBV capsid was dialyzed against buffer N (50 mM NaHCO3 pH 9.6; 5 mM DTT) before urea was added to a final concentration of 3M to dissociate the capsid into core dimers for 1.5 h on ice. The protein solution was then loaded onto a 1 L Sephacryl S300 column. After elution with buffer N core dimer containing fractions were identified by SDS-PAGE and subsequently pooled and dialyzed against 50 mM HEPES pH 7.5; […]. To improve the assembly capacity of the purified core dimers a second round of assembly and disassembly starting with the addition of 5 M NaCl and including the size exclusion chromatography steps described above was performed. From the last chromatography step core dimer containing fractions were pooled and stored in aliquots at concentrations between 1.5 to 2.0 mg/ml at −80° C.
Immediately before labelling the core protein was reduced by adding freshly prepared DTT in a final concentration of 20 mM. After 40 min incubation on ice storage buffer and DTT was removed using a Sephadex G-25 column (GE HealthCare, Frankfurt) and 50 mM HEPES, pH 7.5. For labelling 1.6 mg/ml core protein was incubated at 4° C. and darkness overnight with BODIPY-FL maleimide (Invitrogen, Karlsruhe) in a final concentration of 1 mM. After labelling the free dye was removed by an additional desalting step using a Sephadex G-25 column. Labelled core dimers were stored in aliquots at 4° C. In the dimeric state the fluorescence signal of the labelled core protein is high and is quenched during the assembly of the core dimers to high molecular capsid structures. The screening assay was performed in black 384 well microtiter plates in a total assay volume of 10 μl using 50 mM HEPES pH 7.5 and 1.0 to 2.0 μM labelled core protein. Each screening compound was added in 8 different concentrations using a 0.5 log-unit serial dilution starting at a final concentration of 100 μM, 31.6 μM or 10 μM, In any case the DMSO concentration over the entire microtiter plate was 0.5%. The assembly reaction was started by the injection of NaCl to a final concentration of […] which induces the assembly process to approximately 25% of the maximal quenched signal. 6 min after starting the reaction the fluorescence signal was measured using a Clariostar plate reader (BMG Labtech, Ortenberg) with an excitation of 477 nm and an emission of 525 nm. As 100% and 0% assembly control HEPES buffer containing 2.5 M and 0 M NaCl was used. Experiments were performed thrice in triplicates. EC50 values were calculated by non-linear regression analysis using the Graph Pad Prism 6 software (GraphPad Software, La Jolla, USA).

HBV = test: Determination of HBV DNA from the supernatants of HepAD38 cells (anti-HBV activity); assay type: cell-based, hepatitis B virus; conditions: Hepatitis B virus, read-out: Cell Activity (EC50)
In short: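 HepAD38 cells, tetracycline withdrawn to induce HBV, treated with serial half-log compound dilutions; on day 6 HBV DNA purified from filtered supernatant and quantified by real-time PCR against HBV plasmid standards; EC50 from relative copy numbers by non-linear regression, three experiments in triplicate.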

[2] = 144 h, HBV DNA in HepAD38 supernatant, day 6, qPCR

SMILES | CC50 at 6 days [1] | IC50 (HBV core protein) | EC50 (HBV; [2]) | EC50 (HBV; HePAD38, 144 h)
O=C(c1cc2ccccc2[nH]1)N1CCc2[nH]nc(C(=O)N3CC(CO)C3)c2C1 [Example 45, {1-[5-(1H-indole-2-carbonyl)-1H,4H,5H,6H,7H-pyrazolo[4,3-c]pyridine-3-carbonyl]azetidin-3-yl}methanol] | > 100 µM | < 100 µM | 1 to 25 µM | 
O=C(c1cc2c(Cl)cc(F)cc2[nH]1)N1CCc2[nH]nc(-c3cscn3)c2C1 [Example 46, 4-chloro-6-fluoro-2-[3-(1,3-thiazol-4-yl)-1H,4H,5H,6H,7H-pyrazolo[4,3-c]pyridine-5-carbonyl]-1H-indole] | > 100 µM | < 5 µM | < 1 µM | 
O=C(c1cc2ccccc2[nH]1)N1CCc2[nH]nc(-c3cscn3)c2C1 [Example 47, 2-[3-(1,3-thiazol-4-yl)-1H,4H,5H,6H,7H-pyrazolo[4,3-c]pyridine-5-carbonyl]-1H-indole] | > 100 µM | < 5 µM | < 1 µM | 
CC(C)[C@H](N)C(=O)OCCN(C)C(=O)c1n[nH]c2c1CN(C(=O)c1cc3ccccc3[nH]1)CC2 [Example 48, 2-{1-[5-(1H-indole-2-carbonyl)-1H,4H,5H,6H,7H-pyrazolo[4,3-c]pyridin-3-yl]-N-methylformamido}ethyl (2S)-2-amino-3-methylbutanoate] | > 32 µM | < 5 µM | < 1 µM | 
CC(O)c1cc(F)cc2[nH]c(C(=O)N3CCc4[nH]nc(C(=O)N(C)CCO)c4C3)cc12 (stereo not drawn) [Example 49, 5-[6-fluoro-4-(1-hydroxyethyl)-1H-indole-2-carbonyl]-N-(2-hydroxyethyl)-N-methyl-1H,4H,5H,6H,7H-pyrazolo[4,3-c]pyridine-3-carboxamide] | > 100 µM | < 100 µM | < 100 µM | 
CC(O)c1cccc2[nH]c(C(=O)N3CCc4[nH]nc(C(=O)N(C)CCO)c4C3)cc12 (stereo not drawn) [Example 50, N-(2-hydroxyethyl)-5-[4-(1-hydroxyethyl)-1H-indole-2-carbonyl]-N-methyl-1H,4H,5H,6H,7H-pyrazolo[4,3-c]pyridine-3-carboxamide] | > 32 µM | < 100 µM | < 100 µM | 
CN(CCO)C(=O)c1n[nH]c2c1CN(C(=O)c1cc3c(Cl)c(F)ccc3[nH]1)CC2 [Example 51, 5-(4-chloro-5-fluoro-1H-indole-2-carbonyl)-N-(2-hydroxyethyl)-N-methyl-1H,4H,5H,6H,7H-pyrazolo[4,3-c]pyridine-3-carboxamide] | > 100 µM | < 5 µM | < 1 µM | 
CN(CCO)C(=O)c1n[nH]c2c1CN(C(=O)c1cc3c(F)c(F)ccc3[nH]1)CC2 [Example 52, 5-(4,5-difluoro-1H-indole-2-carbonyl)-N-(2-hydroxyethyl)-N-methyl-1H,4H,5H,6H,7H-pyrazolo[4,3-c]pyridine-3-carboxamide] | > 100 µM | < 5 µM | < 1 µM | 
CN(CCO)C(=O)c1n[nH]c2c1CN(C(=O)c1cc3c(F)ccc(F)c3[nH]1)CC2 [Example 53, 5-(4,7-difluoro-1H-indole-2-carbonyl)-N-(2-hydroxyethyl)-N-methyl-1H,4H,5H,6H,7H-pyrazolo[4,3-c]pyridine-3-carboxamide] | > 100 µM | < 5 µM | < 1 µM | 
COCCN(C)C(=O)c1n[nH]c2c1CN(C(=O)c1cc3ccccc3[nH]1)CC2 [Example 54, 5-(1H-indole-2-carbonyl)-N-(2-methoxyethyl)-N-methyl-1H,4H,5H,6H,7H-pyrazolo[4,3-c]pyridine-3-carboxamide] | > 100 µM | < 5 µM | < 1 µM | 
Cc1cccc2[nH]c(C(=O)N3CCc4[nH]nc(C(=O)N(C)OCCOP(=O)(N[C@@H](C)C(=O)OC(C)C)Oc5ccccc5)c4C3)cc12 (stereo partly drawn) [Example 55, propan-2-yl (2S)-2-({[2-({N-methyl-1-[5-(4-methyl-1H-indole-2-carbonyl)-1H,4H,5H,6H,7H-pyrazolo[4,3-c]pyridin-3-yl]formamido}oxy)ethoxy](phenoxy)phosphoryl}amino)propanoate] | > 32 µM | < 5 µM |  | < 1 µM
CC(C)OC(=O)[C@H](C)NP(=O)(OCCON(C)C(=O)c1n[nH]c2c1CN(C(=O)c1cc3c(Cl)cccc3[nH]1)CC2)Oc1ccccc1 (stereo partly drawn) [Example 56, propan-2-yl (2S)-2-({[2-({1-[5-(4-chloro-1H-indole-2-carbonyl)-1H,4H,5H,6H,7H-pyrazolo[4,3-c]pyridin-3-yl]-N-methylformamido}oxy)ethoxy](phenoxy)phosphoryl}amino)propanoate] | > 32 µM | < 5 µM |  | < 1 µM
CN(CCO)C(=O)c1n[nH]c2c1CN(C(=O)c1cc3ccc(Cl)cc3[nH]1)CC2 [Example 57, 5-(6-chloro-1H-indole-2-carbonyl)-N-(2-hydroxyethyl)-N-methyl-1H,4H,5H,6H,7H-pyrazolo[4,3-c]pyridine-3-carboxamide] | > 100 µM | < 5 µM | < 1 µM | 
CN(CCO)C(=O)c1n[nH]c2c1CN(C(=O)c1cc3c(Cl)cccc3[nH]1)CC2 [Example 58, 5-(4-chloro-1H-indole-2-carbonyl)-N-(2-hydroxyethyl)-N-methyl-1H,4H,5H,6H,7H-pyrazolo[4,3-c]pyridine-3-carboxamide] | > 100 µM | < 5 µM | < 1 µM | 
CN(CCO)C(=O)c1n[nH]c2c1CN(C(=O)c1cc3c(C(F)(F)F)cccc3[nH]1)CC2 [Example 59, N-(2-hydroxyethyl)-N-methyl-5-[4-(trifluoromethyl)-1H-indole-2-carbonyl]-1H,4H,5H,6H,7H-pyrazolo[4,3-c]pyridine-3-carboxamide] | > 32 µM | < 5 µM | < 1 µM | 
CN(CCO)C(=O)c1n[nH]c2c1CN(C(=O)c1cc3c(Cl)cc(F)cc3[nH]1)CC2 [Example 60, 5-(4-chloro-6-fluoro-1H-indole-2-carbonyl)-N-(2-hydroxyethyl)-N-methyl-1H,4H,5H,6H,7H-pyrazolo[4,3-c]pyridine-3-carboxamide] | > 32 µM | < 5 µM | < 1 µM | 
Cc1cc(F)cc2[nH]c(C(=O)N3CCc4[nH]nc(C(=O)N(C)CCO)c4C3)cc12 [Example 61, 5-(6-fluoro-4-methyl-1H-indole-2-carbonyl)-N-(2-hydroxyethyl)-N-methyl-1H,4H,5H,6H,7H-pyrazolo[4,3-c]pyridine-3-carboxamide] | > 100 µM | < 5 µM | < 1 µM | 
CCc1cccc2[nH]c(C(=O)N3CCc4[nH]nc(C(=O)N(C)CCO)c4C3)cc12 [Example 62, 5-(4-ethyl-1H-indole-2-carbonyl)-N-(2-hydroxyethyl)-N-methyl-1H,4H,5H,6H,7H-pyrazolo[4,3-c]pyridine-3-carboxamide] | > 100 µM | < 5 µM | < 1 µM | 
Cc1cccc2[nH]c(C(=O)N3CCc4[nH]nc(C(=O)N(C)CCO)c4C3)cc12 [Example 63, N-(2-hydroxyethyl)-N-methyl-5-(4-methyl-1H-indole-2-carbonyl)-1H,4H,5H,6H,7H-pyrazolo[4,3-c]pyridine-3-carboxamide] | > 100 µM | < 5 µM | < 1 µM | 
